PubChem BioAssay AID248 (DTP/NCI, 2004)
Several values for one entry are separate records, joined by “and”; a condition that tells them apart may be missing. Equal entries are not always repeated. Toxic doses and inconclusive results are not listed. Rule as the data show it: active = T/C of 150% or more; inactive = T/C below 125%.

System: L1210 leukemia ip in BDF1 mice, survival T/C
Assay: NCI In Vivo Anticancer Drug Screen. Data for tumor model L1210 Leukemia (intraperitoneal) in B6D2F1 (BDF1) mice
Settings: higher = longer survival
Summary of the method: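 Mice bearing the transplanted tumor received compound or vehicle. Survival of the treated group was divided by that of the vehicle-treated control group to give the ratio.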

Measured: T/C

CS(=O)(=O)OCCCNCCCOS(C)(=O)=O
active: endpoint: mean survival time, dose: 5.0 mg/kg/injection, schedule: Q03HX024 (ip), vehicle: saline 152 % of control | endpoint: mean survival time, dose: 8.4 mg/kg/injection, schedule: Q01DX009 (ip), vehicle: saline 160 % of control and 173 % of control | endpoint: mean survival time, dose: 8.4 mg/kg/injection, schedule: Q03HX008 (ip), vehicle: saline 150 % of control | endpoint: mean survival time, dose: 8.4 mg/kg/injection, schedule: Q03HX016 (ip), vehicle: saline 156 % of control | endpoint: mean survival time, dose: 8.4 mg/kg/injection, schedule: Q03HX024 (ip), vehicle: saline 155 % of control and 245 % of control | endpoint: mean survival time, dose: 14.0 mg/kg/injection, schedule: Q01DX015 (ip), vehicle: saline 155 % of control | endpoint: mean survival time, dose: 14.0 mg/kg/injection, schedule: Q03HX008 (ip), vehicle: saline 166 % of control and 239 % of control | endpoint: mean survival time, dose: 14.0 mg/kg/injection, schedule: Q03HX016 (ip), vehicle: saline 188 % of control and 303 % of control | endpoint: mean survival time, dose: 14.0 mg/kg/injection, schedule: Q03HX024 (ip), vehicle: saline 332 % of control and 344 % of control | endpoint: mean survival time, dose: 20.0 mg/kg/injection, schedule: Q01DX009 (ip), vehicle: saline 164 % of control and 179 % of control | endpoint: mean survival time, dose: 21.0 mg/kg/injection, schedule: Q01DX015 (ip), vehicle: saline 155 % of control | endpoint: mean survival time, dose: 23.0 mg/kg/injection, schedule: Q03HX008 (ip), vehicle: saline 184 % of control and 327 % of control | endpoint: mean survival time, dose: 23.0 mg/kg/injection, schedule: Q03HX016 (ip), vehicle: saline 244 % of control and 440 % of control | endpoint: mean survival time, dose: 36.0 mg/kg/injection, schedule: Q01DX015 (ip), vehicle: saline 242 % of control | endpoint: mean survival time, dose: 39.0 mg/kg/injection, schedule: Q01DX003 (ip), vehicle: saline 164 % of control and 170 % of control | endpoint: mean survival time, dose: 39.0 mg/kg/injection, schedule: Q01DX005 (ip), vehicle: saline 190 % of control | endpoint: mean survival time, dose: 39.0 mg/kg/injection, schedule: Q04DX003 (ip), vehicle: clinical formulation 157 % of control | endpoint: mean survival time, dose: 39.0 mg/kg/injection, schedule: Q04DX003 (ip), vehicle: saline 212 % of control | endpoint: mean survival time, dose: 39.0 mg/kg/injection, schedule: Q08DX002 (ip), vehicle: saline 200 % of control | endpoint: mean survival time, dose: 40.0 mg/kg/injection, schedule: Q01DX009 (ip), vehicle: saline 178 % of control and 188 % of control | endpoint: mean survival time, dose: 60.0 mg/kg/injection, schedule: Q01DX015 (ip), vehicle: saline 159 % of control | endpoint: mean survival time, dose: 65.0 mg/kg/injection, schedule: Q01DX001 (ip), vehicle: saline 160 % of control | endpoint: mean survival time, dose: 65.0 mg/kg/injection, schedule: Q01DX003 (ip), vehicle: saline 241 % of control | endpoint: mean survival time, dose: 65.0 mg/kg/injection, schedule: Q01DX005 (ip), vehicle: saline 402 % of control | endpoint: mean survival time, dose: 65.0 mg/kg/injection, schedule: Q04DX003 (ip), vehicle: clinical formulation 159 % of control | endpoint: mean survival time, dose: 65.0 mg/kg/injection, schedule: Q04DX003 (ip), vehicle: saline 299 % of control and 445 % of control | endpoint: mean survival time, dose: 65.0 mg/kg/injection, schedule: Q04DX003 (ip), vehicle: water 173 % of control | endpoint: mean survival time, dose: 65.0 mg/kg/injection, schedule: Q08DX002 (ip), vehicle: saline 226 % of control | endpoint: mean survival time, dose: 100.0 mg/kg/injection, schedule: Q01DX001 (ip), vehicle: saline 150 % of control | endpoint: mean survival time, dose: 108.0 mg/kg/injection, schedule: Q01DX001 (ip), vehicle: saline 193 % of control and 337 % of control | endpoint: mean survival time, dose: 108.0 mg/kg/injection, schedule: Q01DX003 (ip), vehicle: saline 247 % of control and 310 % of control | endpoint: mean survival time, dose: 108.0 mg/kg/injection, schedule: Q01DX005 (ip), vehicle: saline 280 % of control | endpoint: mean survival time, dose: 108.0 mg/kg/injection, schedule: Q04DX003 (ip), vehicle: saline 267 % of control and 422 % of control | endpoint: mean survival time, dose: 180.0 mg/kg/injection, schedule: Q01DX001 (ip), vehicle: saline 246 % of control | endpoint: mean survival time, dose: 180.0 mg/kg/injection, schedule: Q08DX002 (ip), vehicle: saline 421 % of control | endpoint: mean survival time, dose: 200.0 mg/kg/injection, schedule: Q01DX001 (ip), vehicle: saline 157 % of control and 176 % of control and 200 % of control | endpoint: median survival time, dose: 25.0 mg/kg/injection, schedule: Q01DX009 (ip), vehicle: saline 150 % of control | endpoint: median survival time, dose: 39.0 mg/kg/injection, schedule: Q01DX005 (ip), vehicle: saline 155 % of control | endpoint: median survival time, dose: 39.0 mg/kg/injection, schedule: Q01DX009 (ip), vehicle: saline 150 % of control | endpoint: median survival time, dose: 50.0 mg/kg/injection, schedule: Q01DX009 (ip), vehicle: saline 180 % of control | endpoint: median survival time, dose: 50.0 mg/kg/injection, schedule: Q04DX003 (ip), vehicle: saline 161 % of control | endpoint: median survival time, dose: 65.0 mg/kg/injection, schedule: Q01DX005 (ip), vehicle: saline 155 % of control | endpoint: median survival time, dose: 65.0 mg/kg/injection, schedule: Q04DX003 (ip), vehicle: saline 155 % of control | endpoint: median survival time, dose: 100.0 mg/kg/injection, schedule: Q04DX003 (ip), vehicle: saline 177 % of control and 666 % of control | endpoint: median survival time, dose: 108.0 mg/kg/injection, schedule: Q01DX001 (ip), vehicle: saline 155 % of control | endpoint: median survival time, dose: 108.0 mg/kg/injection, schedule: Q04DX003 (ip), vehicle: saline 188 % of control
inactive: endpoint: mean survival time, dose: 3.0 mg/kg/injection, schedule: Q03HX024 (ip), vehicle: saline 122 % of control | endpoint: mean survival time, dose: 5.0 mg/kg/injection, schedule: Q03HX008 (ip), vehicle: saline 119 % of control | endpoint: mean survival time, dose: 14.0 mg/kg/injection, schedule: Q01DX009 (oral), vehicle: saline 100 % of control | endpoint: mean survival time, dose: 23.0 mg/kg/injection, schedule: Q01DX009 (oral), vehicle: saline 115 % of control | endpoint: mean survival time, dose: 23.0 mg/kg/injection, schedule: Q04DX003 (iv), vehicle: saline 98 % of control | endpoint: mean survival time, dose: 25.0 mg/kg/injection, schedule: Q01DX001 (ip), vehicle: saline 115 % of control | endpoint: mean survival time, dose: 39.0 mg/kg/injection, schedule: Q01DX009 (sc), vehicle: saline 120 % of control | endpoint: mean survival time, dose: 39.0 mg/kg/injection, schedule: Q04DX003 (iv), vehicle: saline 87 % of control | endpoint: mean survival time, dose: 65.0 mg/kg/injection, schedule: Q01DX001 (oral), vehicle: saline 109 % of control | endpoint: mean survival time, dose: 65.0 mg/kg/injection, schedule: Q01DX009 (oral), vehicle: saline 106 % of control | endpoint: mean survival time, dose: 65.0 mg/kg/injection, schedule: Q04DX003 (iv), vehicle: saline 109 % of control | endpoint: mean survival time, dose: 65.0 mg/kg/injection, schedule: Q04DX003 (oral), vehicle: saline 120 % of control | endpoint: mean survival time, dose: 80.0 mg/kg/injection, schedule: Q01DX009 (ip), vehicle: saline 94 % of control and 122 % of control | endpoint: mean survival time, dose: 108.0 mg/kg/injection, schedule: Q01DX001 (oral), vehicle: saline 110 % of control | endpoint: mean survival time, dose: 108.0 mg/kg/injection, schedule: Q01DX001 (sc), vehicle: saline 115 % of control | endpoint: mean survival time, dose: 108.0 mg/kg/injection, schedule: Q01DX009 (sc), vehicle: saline 93 % of control | endpoint: mean survival time, dose: 108.0 mg/kg/injection, schedule: Q04DX003 (ip), vehicle: clinical formulation 108 % of control | endpoint: mean survival time, dose: 108.0 mg/kg/injection, schedule: Q04DX003 (ip), vehicle: water 100 % of control | endpoint: mean survival time, dose: 108.0 mg/kg/injection, schedule: Q04DX003 (iv), vehicle: saline 113 % of control | endpoint: mean survival time, dose: 180.0 mg/kg/injection, schedule: Q01DX001 (oral), vehicle: saline 120 % of control | endpoint: mean survival time, dose: 180.0 mg/kg/injection, schedule: Q01DX001 (sc), vehicle: saline 115 % of control | endpoint: mean survival time, dose: 180.0 mg/kg/injection, schedule: Q01DX003 (ip), vehicle: saline 95 % of control and 103 % of control | endpoint: mean survival time, dose: 180.0 mg/kg/injection, schedule: Q04DX003 (iv), vehicle: saline 118 % of control | endpoint: mean survival time, dose: 180.0 mg/kg/injection, schedule: Q04DX003 (oral), vehicle: saline 95 % of control | endpoint: median survival time, dose: 12.5 mg/kg/injection, schedule: Q01DX009 (ip), vehicle: saline 115 % of control | endpoint: median survival time, dose: 23.0 mg/kg/injection, schedule: Q01DX005 (ip), vehicle: saline 122 % of control | endpoint: median survival time, dose: 39.0 mg/kg/injection, schedule: Q01DX005 (sc), vehicle: saline 122 % of control | endpoint: median survival time, dose: 65.0 mg/kg/injection, schedule: Q01DX009 (ip), vehicle: saline 100 % of control and 115 % of control | endpoint: median survival time, dose: 108.0 mg/kg/injection, schedule: Q01DX005 (ip), vehicle: saline 100 % of control | endpoint: median survival time, dose: 108.0 mg/kg/injection, schedule: Q01DX005 (sc), vehicle: saline 88 % of control | endpoint: median survival time, dose: 200.0 mg/kg/injection, schedule: Q04DX003 (ip), vehicle: saline 100 % of control
